Experimental data as given in patent publication US4870098A, “Antagonists of leukotriene D4” (G. D. Searle & Co., priority 1989, dated 1989).
pIC50: −log10 of the molar value.

How the values were obtained:
[1] = target: T1, LTD4 receptor (guinea pig lung receptors) (Cavia porcellus, UniProt Q2NNR5); assay: Leukotriene Receptor Binding Assay (LTD4 receptor binding, guinea pig lung membrane); settings: LTD4 binding to guinea pig lung membrane receptors; read-out: LTD4 antagonism: Receptor Binding Assay (IC50)
T1 construct: isolated from guinea pig lung membrane; from tissue; host or cells: guinea pig lung membrane
T1 sequence (Q2NNR5 1-340): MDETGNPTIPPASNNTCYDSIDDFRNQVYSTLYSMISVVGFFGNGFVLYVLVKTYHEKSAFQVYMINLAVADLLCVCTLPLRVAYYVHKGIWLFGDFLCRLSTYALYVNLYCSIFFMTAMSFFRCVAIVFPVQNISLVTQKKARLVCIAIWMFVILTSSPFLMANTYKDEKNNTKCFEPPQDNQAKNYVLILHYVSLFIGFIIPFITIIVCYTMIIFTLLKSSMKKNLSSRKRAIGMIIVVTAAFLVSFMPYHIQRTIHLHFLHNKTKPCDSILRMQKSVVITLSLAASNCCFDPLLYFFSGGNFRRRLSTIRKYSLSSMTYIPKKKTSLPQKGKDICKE
Protocol: Leukotriene Receptor Binding Assay
The in vitro LTD4 receptor binding assay is carried out as follows:
Specific binding of titrated LTD4 to a fixed number of guinea pig lung receptors, isolated from guinea pig lung membrane, is measured in the presence and absence of test compound. The initial screening dose (1×10^-5 M) is considered active if the specific binding of the LTD4 is reduced by 45% or more. Active compounds are tested in a dose-response manner to determine IC50 values.

[2] = target: T2, guinea pig ileum (LTD4-induced contraction) (Cavia porcellus, UniProt Q2NNR5); assay: LTD4 Antagonism in Guinea Pig Ileum; type: cell-based; settings: pA2, negative log of antagonist concentration required to produce a dose-ratio of 2
T2 construct: Fresh segments of guinea pig ileum; from tissue; host or cells: guinea pig ileum segments
T2 sequence (Q2NNR5 1-340): T1 sequence (Q2NNR5 1-340)
Protocol: LTD4 Antagonism in Guinea Pig Ileum
Fresh segments of guinea pig ileum were suspended in 2 ml. tissue baths containing oxygenated modified Tyrodes solution. After an equilibration period, an agonist dose-response curve was generated by exposing each tissue to 4 different LTD4 doses and measuring the ensuing contractile heights. The ileum segments were washed and rested between exposures to agonist. Following this, the tissues were incubated with a single concentration of test compound and the agonist dose-response procedure was repeated. The dose ratio is a measure of the antagonist's ability to shift the agonist dose-response curve to the right. It is derived as the concentration of agonist necessary to reach a given response level in the presence (A') versus the absence (A) of antagonist. For example, if the test concentration of compound had no effect on the agonist-induced response (A'=A) the dose-ratio would approximate 1. […] One dose-ratio value is determined for each strip of ileum used to test antagonist. […] Schild analysis examines the linearity of the function described by the dose-ratios written as log [(A'/A)-1] versus antagonist concentration. If the linearity is […] and the slope approximates 1, inhibition is considered to be competitive. The pA2 is the negative log of the antagonist concentration required to produce a dose-ratio of 2. […]

[3] = system: LTD4-induced bronchoconstriction; assay: In Vivo Bronchoconstriction Assay (LTD4-induced intratracheal insufflation pressure increase); design: species or system guinea pig (Hartly); settings: guinea pig, 2000 units of LTD4 IV
Protocol: The compounds are tested in vivo as follows. Adult male fasted Hartly guinea pigs weighing 300-350 g are pretreated with pyrilamine and indomethacin to block the bronchoconstricture effects of endogenous histamine and the synthesis of thromboxane A2 respectively. Compounds of the invention are administered IV or IG at appropriate times prior to the IV administration of 2000 units of LTD4. Intratracheal pressure is monitored prior to and subsequent to LTD4 in animals anesthetized with pentobarbital and attached to a rodent respirator. Compounds which antagonize the direct component of LTD4 action on respiratory smooth muscle inhibit intratracheal insufflation pressure increases (P< or =0.05) caused by LTD4. FPL 55712 is used as a control.

LTB4 receptor = target: T3, LTB4 receptor (Homo sapiens, UniProt Q15722); assay: LTB4 Receptor Binding Assay (human neutrophils); settings: 0.6 nano M (3H) LTB4, 0° C., 45 minutes, read-out: LTB4 antagonism: Receptor Binding Assay (IC50)
T3 construct: Neutrophils are purified from venous blood of normal human donors; endogenous in cells; host or cells: human neutrophils from venous blood
Protocol: (§1) Preparation of Human Neutrophils
(§2) Neutrophils are purified from venous blood of normal human donors using standard techniques of dextran sedimentation, centrifugation on Histopaque sterile solution (Sigma) and hypotonic lysis of erythrocytes (Boyum, A., Isolation of Leukocytes From Human Blood: Further Observations. Scand. J. Lab. Clin. Invest. 21 (Suppl. 97): 31, 1968). The purity of isolated neutrophils was ≥95%.
LTB4 Receptor Binding Assay
Neutrophils (4-6×10^6) in 1 ml Hanks' balanced salt solution containing 10 mM HEPES buffer (HBSS), pH 7.4 and […] nordihydroguaiaretic acid were incubated with 0.6 nano M (^3 H) LTB4 in the presence or absence of test compounds. The incubation was carried out at 0° C. for 45 minutes and terminated by adding 5 ml of ice-cold HBSS followed by rapid filtration of incubation mixture under vacuum through GF/C glass fiber filters. The filters were further washed with 10 ml HBSS and radioactivity was determined. […] All data refer to specific binding.

[4] = system: human neutrophils (myeloperoxidase release); assay: Human Neutrophil Degranulation Assay; type: cell-based; settings: table head LTB4 antagonism (method: LTB4 5×10^-8 M or f-met-leu-phe 5×10^-6 M)
Protocol: as §1, §2
Human Neutrophil Degranulation Assay
Neutrophil degranulation was determined by measuring the release of myeloperoxidase activity into the incubation medium. Neutrophils (3×10^6) in 1 ml HBSS solution were preincubated with cytochalasin B(5μg) at 37° C. for 5 minutes, followed by preincubation with test compounds for 7 minutes. […] The supernatants and the pellet-extracts were then assayed spectrophotometrically for myeloperoxidase activity by determining the rate of decomposition of H2 O2 with o-dianisidine as hydrogen donor as described by Renlund, et al. (Renlund, D. G., MacFarlane, J. L., Christensen, R. D., Lynch, R. E., and Rothstein, G., A Quantitive And Sensitive Method for Measurement of Myeloperoxidase, Clinical Research 28:75A, 1980). Myeloperoxidase activity released into the supernatant was expressed as the percent of the average total activity (pellet plus supernatant).

[5] = system: LTB4-induced dermal neutrophil chemotaxis (MPO activity); assay: Guinea Pig LTB4-Induced Dermal Chemotaxis; type: in vivo; settings: Cavia porcellus, method: 35 ng LTB4 intradermal, compound IV or IG, MPO at 4 hours, read-out: LTB4 antagonism: Guinea Pig LTB4 Induced Dermal Chemotaxis (IC50)
Protocol: Guinea Pig LTB4 -Induced Dermal Chemotaxis
Test compound was administered intravenously or intragastrically at various times prior to the injection of leukotriene B4 (LTB4). LTB4 was diluted in phosphate buffered saline (PBS) and 35 ng in 0.2 ml were injected intradermally into the shaven backs of anesthetized guinea pigs. PBS was injected as control. Four hours later, animals were sacrificed, skins removed and stored frozen (-70° C.). Injection sites were removed with a skin punch and mechanically homogenized (Polytron, Brinkmann Instruments). Myeloperoxidase (MPO), a marker enzyme for neutrophils, was extracted by 0.5% hexadecyltrimethylammonium bromide in 50 mM potassium phosphate buffer (pH 6.0), using sonication and freeze-thaw procedures. After centrifugation (40,000×g, 30 minutes), enzyme activities in the supernatants were assayed spectrophotometrically (A460) by measuring the decomposition of hydrogen peroxide with ortho-dianisidine after 15 minutes. […] In guinea pigs the level of MPO activity increased with the amount of LTB4 injected.

T3 sequence (Q15722 whole entry): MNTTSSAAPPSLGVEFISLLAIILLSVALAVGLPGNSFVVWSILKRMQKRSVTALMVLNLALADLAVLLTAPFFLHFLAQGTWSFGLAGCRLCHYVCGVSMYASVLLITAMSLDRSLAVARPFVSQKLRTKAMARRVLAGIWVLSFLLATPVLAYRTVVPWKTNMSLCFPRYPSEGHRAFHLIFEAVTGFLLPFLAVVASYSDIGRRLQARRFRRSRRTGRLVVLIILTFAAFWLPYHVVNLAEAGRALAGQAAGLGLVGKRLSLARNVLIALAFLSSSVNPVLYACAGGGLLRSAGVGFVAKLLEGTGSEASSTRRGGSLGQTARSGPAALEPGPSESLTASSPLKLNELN

CCCc1c(OCCCSCC2COC3(CCC(CC(=O)O)C3)S2)ccc(C(C)=O)c1O (stereo not drawn) [Example 2, 3-[[[3-(4-acetyl-3-hydroxy-2-propylphenoxy)propyl]thio]methyl]-1-oxa-4-thiaspiro[4.4]nonane-7-acetic acid]
pIC50 [1]: 5.21 | Kb [2]: 0.0457 µM | LTD4 antagonism: In Vivo Bronchoconstriction Assay (% Inhibition at 5 mpk. IV) [3]: 94.7% | pIC50 (LTB4 receptor): 6.10 | pIC50 [4]: 5.14 | pIC50 [5]: 5.08
